Experimental data as given in PubChem BioAssay AID1745844 (Carcinogenic Potency Database (CPDB), 2022).
Several values for one entry are separate records, joined by “and”; a condition that tells them apart may be missing. Identical values can stand only once. Activity calls are given as the source filed them. How the calls were made is not given here.

Test system: rodent lifetime carcinogenesis bioassay, tumor incidence TD50
Assay: chronic cancer bioassays in animals – CPDB, compiled studies (AID 1745844)

Question: Which results are given for `O=NO`?
Answer: TD50 (hamster, strain Syrian Golden, females, in feed, site: any site (literature study), lesion: one or several types, types not named, dosed 97 weeks, study length 97 weeks): 477 mg/kg/day; TD50 (mouse, strain B6C3F1, females, in drinking water, site: any site (literature study), lesion: several types, types named in the paper, dosed 104 weeks, study length 104 weeks): 459 mg/kg/day; TD50 (mouse, strain B6C3F1, females, in drinking water, site: forestomach, lesion: squamous-cell carcinoma + squamous-cell papilloma, dosed 104 weeks, study length 104 weeks): 1610 mg/kg/day; TD50 (mouse, strain B6C3F1, females, in drinking water, site: lung, lesion: alveolar/bronchiolar adenoma + alveolar/bronchiolar carcinoma, dosed 104 weeks, study length 104 weeks): 843 mg/kg/day; TD50 (mouse, strain B6C3F1, males, in drinking water, site: any site (literature study), lesion: several types, types named in the paper, dosed 104 weeks, study length 104 weeks): 9190 mg/kg/day (inactive); TD50 (mouse, strain B6C3F1, males, in drinking water, site: lung, lesion: alveolar/bronchiolar adenoma + alveolar/bronchiolar carcinoma, dosed 104 weeks, study length 104 weeks): 990 mg/kg/day; carcinogen call (mouse, strain C57BL/6, females, in drinking water, site: liver, lesion: several types, types named in the paper, dosed 117 weeks, study length 126 weeks): negative (inactive); TD50 (mouse, strain C57BL/6, females, in drinking water, site: lung, lesion: one or several types, types not named, dosed 117 weeks, study length 126 weeks): 5200 mg/kg/day (inactive); carcinogen call (mouse, strain C57BL/6, females, in feed, site: any site (literature study), lesion: several types, types named in the paper, dosed 52 weeks, study length 69 weeks): negative (inactive); carcinogen call (mouse, strain C57BL/6, females, in feed, site: liver, lesion: hepatocellular carcinoma, dosed 52 weeks, study length 69 weeks): negative (inactive); carcinogen call (mouse, strain C57BL/6, females, in feed, site: lung, lesion: adenoma, dosed 52 weeks, study length 69 weeks): negative (inactive); TD50 (mouse, strain C57BL/6, males, in feed, site: any site (literature study), lesion: several types, types named in the paper, dosed 52 weeks, study length 69 weeks): 1210 mg/kg/day (inactive); carcinogen call (mouse, strain C57BL/6, males, in feed, site: liver, lesion: hepatocellular carcinoma, dosed 52 weeks, study length 69 weeks): negative (inactive); TD50 (mouse, strain C57BL/6, males, in feed, site: lung, lesion: adenoma, dosed 52 weeks, study length 69 weeks): 1610 mg/kg/day (inactive); carcinogen call (mouse, strain ICR/Jcl, females, in drinking water, site: any site (literature study), lesion: several types, types named in the paper, dosed 109 weeks, study length 109 weeks): negative (inactive); carcinogen call (mouse, strain ICR/Jcl, females, in drinking water, site: liver, lesion: one or several types, types not named, dosed 109 weeks, study length 109 weeks): negative (inactive); TD50 (mouse, strain ICR/Jcl, females, in drinking water, site: lung, lesion: one or several types, types not named, dosed 109 weeks, study length 109 weeks): 7230 mg/kg/day (inactive); carcinogen call (mouse, strain ICR/Jcl, males, in drinking water, site: any site (literature study), lesion: several types, types named in the paper, dosed 109 weeks, study length 109 weeks): negative (inactive); TD50 (mouse, strain ICR/Jcl, males, in drinking water, site: liver, lesion: one or several types, types not named, dosed 109 weeks, study length 109 weeks): 25000 mg/kg/day (inactive); TD50 (mouse, strain ICR/Jcl, males, in drinking water, site: lung, lesion: one or several types, types not named, dosed 109 weeks, study length 109 weeks): 16300 mg/kg/day (inactive); TD50 (mouse, strain Swiss CD-1, females, in drinking water, site: liver, lesion: hepatocellular tumor, dosed 34 weeks, study length 125 weeks): 744 mg/kg/day (inactive); carcinogen call (mouse, strain Swiss CD-1, females, in drinking water, site: lung, lesion: one or several types, types not named, dosed 34 weeks, study length 125 weeks): negative (inactive); carcinogen call (mouse, strain Swiss CD-1, males, in drinking water, site: liver, lesion: hepatocellular tumor, dosed 34 weeks, study length 115 weeks): negative (inactive); TD50 (mouse, strain Swiss CD-1, males, in drinking water, site: lung, lesion: one or several types, types not named, dosed 34 weeks, study length 115 weeks): 103 mg/kg/day (inactive); carcinogen call (mouse, strain VM, females, in drinking water, site: brain, lesion: glioma, dosed 134 weeks, study length 134 weeks): negative (inactive); carcinogen call (mouse, strain VM, males, in drinking water, site: brain, lesion: glioma, dosed 113 weeks, study length 113 weeks): negative (inactive); TD50 (rat, strain Charles River CD (Sprague-Dawley), both sexes, in feed, site: all sites, lesion: malignant lymphoma, dosed 123 weeks, study length 123 weeks): 539 mg/kg/day; TD50 (rat, strain Charles River CD (Sprague-Dawley), both sexes, in feed, site: liver, lesion: angiosarcoma, dosed 123 weeks, study length 123 weeks): 5840 mg/kg/day; TD50 (rat, strain Charles River CD (Sprague-Dawley), both sexes, in feed, site: spleen, lesion: lymphoma, dosed 123 weeks, study length 123 weeks): 601 mg/kg/day; carcinogen call (rat, strain F344/DuCrj, males, in drinking water, site: forestomach, lesion: one or several types, types not named, dosed 51 weeks, study length 51 weeks): negative (inactive); carcinogen call (rat, strain F344/DuCrj, males, in drinking water, site: stomach, glandular, lesion: one or several types, types not named, dosed 51 weeks, study length 51 weeks): negative (inactive); TD50 (rat, strain Fischer 344, females, in drinking water, site: adrenal gland, lesion: medullary tumor, dosed 104 weeks, study length 128 weeks): 163 mg/kg/day; TD50 (rat, strain Fischer 344, females, in drinking water, site: any site (literature study), lesion: several types, types named in the paper, dosed 104 weeks, study length 104 weeks): 74400 mg/kg/day (inactive); carcinogen call (rat, strain Fischer 344, females, in drinking water, site: any site (literature study), lesion: several types, types named in the paper, dosed 104 weeks, study length 120 weeks): negative (inactive); TD50 (rat, strain Fischer 344, females, in drinking water, site: liver, lesion: hepatocellular carcinoma, dosed 104 weeks, study length 128 weeks): 1550 mg/kg/day; TD50 (rat, strain Fischer 344, females, in drinking water, site: liver, lesion: neoplastic nodule, dosed 104 weeks, study length 128 weeks): 185 mg/kg/day; carcinogen call (rat, strain Fischer 344, females, in drinking water, site: liver, lesion: several types, types named in the paper, dosed 104 weeks, study length 120 weeks): negative (inactive); TD50 (rat, strain Fischer 344, females, in drinking water, site: liver, lesion: several types, types named in the paper, dosed 104 weeks, study length 128 weeks): 153 mg/kg/day; TD50 (rat, strain Fischer 344, females, in drinking water, site: mammary tissue, wider than the gland, lesion: one or several types, types not named, dosed 104 weeks, study length 128 weeks): 115 mg/kg/day; TD50 (rat, strain Fischer 344, females, in drinking water, site: thyroid gland, lesion: carcinoma, dosed 104 weeks, study length 128 weeks): 163 mg/kg/day; TD50 (rat, strain Fischer 344, females, in drinking water, site: uterus, lesion: polyp, dosed 104 weeks, study length 128 weeks): 218 mg/kg/day; carcinogen call (rat, strain Fischer 344, females, in feed, site: any site (literature study), lesion: several types, types named in the paper, dosed 52 weeks, study length 69 weeks): negative (inactive); TD50 (rat, strain Fischer 344, females, in feed, site: liver, lesion: carcinoma, dosed 104 weeks, study length 130 weeks): 470 mg/kg/day; TD50 (rat, strain Fischer 344, females, in feed, site: liver, lesion: hepatocellular carcinoma, dosed 104 weeks, study length 128 weeks): 629 mg/kg/day; TD50 (rat, strain Fischer 344, females, in feed, site: liver, lesion: hepatocellular carcinoma, dosed 104 weeks, study length 130 weeks): 516 mg/kg/day; TD50 (rat, strain Fischer 344, females, in feed, site: liver, lesion: neoplastic nodule, dosed 104 weeks, study length 128 weeks): 164 mg/kg/day; TD50 (rat, strain Fischer 344, females, in feed, site: liver, lesion: neoplastic nodule, dosed 104 weeks, study length 130 weeks): 199 mg/kg/day and 218 mg/kg/day; carcinogen call (rat, strain Fischer 344, females, in feed, site: liver, lesion: one or several types, types not named, dosed 52 weeks, study length 69 weeks): negative (inactive); TD50 (rat, strain Fischer 344, females, in feed, site: liver, lesion: several types, types named in the paper, dosed 104 weeks, study length 128 weeks): 141 mg/kg/day; TD50 (rat, strain Fischer 344, females, in feed, site: liver, lesion: several types, types named in the paper, dosed 104 weeks, study length 130 weeks): 124 mg/kg/day and 136 mg/kg/day; carcinogen call (rat, strain Fischer 344, males, in drinking water, site: any site (literature study), lesion: several types, types named in the paper, dosed 104 weeks, study length 120 weeks): negative (inactive); TD50 (rat, strain Fischer 344, males, in drinking water, site: liver, lesion: hepatocellular adenoma + hepatoblastoma + hepatocellular carcinoma, dosed 104 weeks, study length 104 weeks): 6550 mg/kg/day; TD50 (rat, strain Fischer 344, males, in drinking water, site: liver, lesion: hepatocellular carcinoma, dosed 104 weeks, study length 128 weeks): 1040 mg/kg/day; TD50 (rat, strain Fischer 344, males, in drinking water, site: liver, lesion: several types, types named in the paper, dosed 104 weeks, study length 120 weeks): 1310 mg/kg/day (inactive); TD50 (rat, strain Fischer 344, males, in drinking water, site: liver, lesion: several types, types named in the paper, dosed 104 weeks, study length 128 weeks): 946 mg/kg/day; TD50 (rat, strain Fischer 344, males, in drinking water, site: skin, lesion: fibroma, dosed 104 weeks, study length 104 weeks): 667 mg/kg/day (inactive); carcinogen call (rat, strain Fischer 344, males, in feed, site: all sites, lesion: granulocytic leukemia, dosed 115 weeks, study length 115 weeks): negative (inactive); carcinogen call (rat, strain Fischer 344, males, in feed, site: all sites, lesion: mononuclear-cell leukemia, dosed 115 weeks, study length 115 weeks): negative (inactive); carcinogen call (rat, strain Fischer 344, males, in feed, site: any site (literature study), lesion: one or several types, types not named, dosed 115 weeks, study length 115 weeks): negative (inactive); carcinogen call (rat, strain Fischer 344, males, in feed, site: any site (literature study), lesion: several types, types named in the paper, dosed 52 weeks, study length 69 weeks): negative (inactive); TD50 (rat, strain Fischer 344, males, in feed, site: liver, lesion: neoplastic nodule, dosed 104 weeks, study length 130 weeks): 467 mg/kg/day and 674 mg/kg/day; carcinogen call (rat, strain Fischer 344, males, in feed, site: liver, lesion: one or several types, types not named, dosed 52 weeks, study length 69 weeks): negative (inactive); TD50 (rat, strain Fischer 344, males, in feed, site: liver, lesion: several types, types named in the paper, dosed 104 weeks, study length 130 weeks): 445 mg/kg/day and 641 mg/kg/day; carcinogen call (rat, strain Fischer 344, males, in feed, site: several sites, sites named in the paper, lesion: lymphoma, dosed 115 weeks, study length 115 weeks): negative (inactive); carcinogen call (rat, strain Fischer 344, males, in feed, site: testis, lesion: interstitial-cell tumor, dosed 115 weeks, study length 115 weeks): negative (inactive); carcinogen call (rat, strain MRC, females, in drinking water, site: any site (literature study), lesion: one or several types, types not named, dosed 67 weeks, study length 122 weeks): negative (inactive); TD50 (rat, strain MRC, females, in drinking water, site: any site (literature study), lesion: several types, types named in the paper, dosed 84 weeks, study length 104 weeks): 57.3 mg/kg/day (inactive); carcinogen call (rat, strain MRC, females, in drinking water, site: liver, lesion: one or several types, types not named, dosed 67 weeks, study length 122 weeks): negative (inactive); carcinogen call (rat, strain MRC, males, in drinking water, site: any site (literature study), lesion: one or several types, types not named, dosed 67 weeks, study length 122 weeks): negative (inactive); TD50 (rat, strain MRC, males, in drinking water, site: any site (literature study), lesion: several types, types named in the paper, dosed 84 weeks, study length 104 weeks): 61.9 mg/kg/day (inactive); carcinogen call (rat, strain MRC, males, in drinking water, site: liver, lesion: one or several types, types not named, dosed 67 weeks, study length 122 weeks): negative (inactive); carcinogen call (rat, strain Wistar, males, in drinking water, site: liver, lesion: hepatocellular carcinoma, dosed 94 weeks, study length 94 weeks): negative (inactive); carcinogen call (rat, strain Wistar, males, in drinking water, site: liver, lesion: one or several types, types not named, dosed 102 weeks, study length 102 weeks): negative (inactive); carcinogen call (rat, strain Wistar, males, in drinking water, site: lung, lesion: one or several types, types not named, dosed 94 weeks, study length 94 weeks): negative (inactive); carcinogen call (rat, strain Wistar, males, in drinking water, site: nasal cavity, lesion: one or several types, types not named, dosed 94 weeks, study length 94 weeks): negative (inactive); TD50 (rat, strain Wistar, males, in feed, site: liver, lesion: several types, types named in the paper, dosed 92 weeks, study length 92 weeks): 155 mg/kg/day

Question: For `O=S1OCCO1`, which TD50 (mouse, strain Ha/ICR, females, i.p., site: lung, lesion: papillary tumor, dosed 64 weeks, study length 64 weeks) is on record?
Answer: 1.03 mg/kg/day
